Assay results taken from US10874733B2 (priority 2016, dated 2020).

How the values were obtained:
Assay type in all cases: physicochemical
[1] = Liposome surface charge (zeta potential); details: for Liposome surface charge (mV): DMPC:DOTAP liposome
Method: 1 mL of each of the sample of the lipid dissolution step and 1 mL of a sample obtained by simply mixing the glycolipid of Preparation Example 2-(3) with a liposome were loaded on a cuvette for measuring a surface charge (zeta potential), and a surface charge was measured using a dynamic light-scattering apparatus (Malvern instrument, ZSP nano) (Table 4).

[2] = Liposome size by dynamic light scattering (hydrodynamic size); details: for Liposome size (d, nm): DMPC:DOTAP liposome
Method: (§1) 1 mL of each of the sample of the lipid dissolution step and 1 mL of a sample obtained by simply mixing the glycolipid of Preparation Example 2-(3) with liposome were added to a cuvette, and a hydrodynamic size was measured using a dynamic light-scattering apparatus (Malvern instrument, ZSP nano) (Table 2).

[3] = Liposome size homogeneity (PDI, size distribution) by dynamic light scattering; details: for Liposome PDI: DMPC:DOTAP liposome
Method: as §1, with “and distribution were analyzed” for “was measured”, “3, FIGS. 3 and 4). FIG. 3 is a diagram showing a liposome size distribution in a lipid-solubilization step, and FIG. 4 is a diagram showing a liposome size distribution in a step of simply mixing glycolipid with a liposome.” for “2).”

[4] = lipid dissolution step, glycolipid content 1 mol %
[5] = lipid dissolution step, glycolipid content 3 mol %
[6] = lipid dissolution step, glycolipid content 6 mol %
[7] = step of simple mixing with liposome, glycolipid content 1 mol %
[8] = step of simple mixing with liposome, glycolipid content 3 mol %
[9] = step of simple mixing with liposome, glycolipid content 6 mol %

Substance: Monophosphoryl lipid A [MPL]
- Liposome surface charge (mV) [1, 4]: 57.0 ± 3.0 mV
- Liposome surface charge (mV) [1, 5]: 56.2 ± 0.6 mV
- Liposome surface charge (mV) [1, 6]: 23.7 ± 0.6 mV
- Liposome surface charge (mV) [1, 7]: 57.8 ± 1.6 mV
- Liposome surface charge (mV) [1, 8]: 56.9 ± 3.4 mV
- Liposome surface charge (mV) [1, 9]: 48.5 ± 1.4 mV
- Surface charge change ([1]; mixed at a high content of 6 mol %): decreased sharply
- Liposome size (d, nm) ([2]; glycolipid incorporated in lipid dissolution step, glycolipid content 6 mol %): 355.4 nm
- Liposome size (d, nm) [2, 4]: 367.9 nm
- Liposome size (d, nm) [2, 5]: 309.2 nm
- Liposome size (d, nm) [2, 7]: 694.9 nm
- Liposome size (d, nm) [2, 8]: 1206.1 nm
- Liposome size (d, nm) [2, 9]: 1538.7 nm
- Change of liposome size on simple mixing with a liposome ([2]; glycolipid simply mixed with liposome): tended to increase in size
- Liposome PDI [3, 4]: 0.353
- Liposome PDI [3, 5]: 0.412
- Liposome PDI [3, 6]: 0.405
- Liposome PDI [3, 7]: 0.552
- Liposome PDI [3, 8]: 0.793
- Liposome PDI [3, 9]: 0.887
- Liposome size distribution ([3]; glycolipid incorporated during lipid dissolution (encapsulated liposome), FIG. 3): not uniform
- Dispersibility of the liposome (PDI) ([3]; over glycolipid contents 6, 3, 1 mol %): increased depending on concentration
- Liposome size distribution ([3]; simple mixing of liposome with glycolipid (adsorbed liposome), FIG. 4): not uniform
